Data on 28 compounds can be found in patent publication US20240239752A1, “BICYCLIC HETEROAROMATIC INHIBITORS OF KLK5” (BioCryst Pharmaceuticals, Inc., priority 2021, published 2024).

In this test the target is T1, recombinant human KLK5 (Homo sapiens, UniProt Q9Y337).
T1 construct: purchased Novoprotein or R&D Systems C415 or 1108-SE
T1 sequence (Q9Y337 23-293): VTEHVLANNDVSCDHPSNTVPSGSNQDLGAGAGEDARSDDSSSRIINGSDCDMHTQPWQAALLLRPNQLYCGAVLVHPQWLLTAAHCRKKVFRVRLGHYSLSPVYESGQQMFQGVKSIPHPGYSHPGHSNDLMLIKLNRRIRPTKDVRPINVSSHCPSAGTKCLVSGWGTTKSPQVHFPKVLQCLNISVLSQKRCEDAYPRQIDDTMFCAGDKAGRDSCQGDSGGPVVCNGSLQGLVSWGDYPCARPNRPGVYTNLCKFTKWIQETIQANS
The experiment in a line: Kallikrein (KLK) 5 enzymatic assay (Boc-VPR-AMC fluorogenic substrate). The test is classed as biochemical. To be noted: recombinant human KLK5 0.1 μg/well, Boc-VPR-AMC 100 μM, pH 7.5, room temperature, 1% DMSO; tested a minimum of three times. The essentials: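 Fluorogenic rate assay at pH 7.5 (0.1 M NaH2PO4, 1% DMSO, room temperature), run at least three times per compound. Compound was premixed with 0.1 μg/well recombinant human KLK5 before adding 100 μM Boc-VPR-AMC; AMC release was read at ex 380/em 460 nm, and IC50 derived from inhibition of rate vs DMSO control.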
For the compound `N#Cc1cc(-c2cccc3c(N)nccc23)cc2c(COc3ccccc3CC(=O)O)nn(C3CCCCO3)c12` (stereo not shown) [Compound 108c, 2-(2-((5-(1-aminoisoquinolin-5-yl)-7-cyano-1-(tetrahydro-2H-pyran-2-yl)-1H-indazol-3-yl)methoxy)phenyl)acetic acid], the IC50 is < 1000 nM.
Then `Nc1nccc2ccc(-c3ccc4nn(C5CCOC5)c(COc5ccccc5CC(=O)O)c4c3)cc12` (stereo not shown) [Compound 109b, 2-(2-((5-(1-aminoisoquinolin-7-yl)-2-(tetrahydrofuran-3-yl)-2H-indazol-3-yl)methoxy)phenyl)acetic acid], with 1000 to 10000 nM; and `CCC(CC)n1nc(COc2ccccc2CC(=O)O)c2cc(-c3ccc4ccnc(N)c4c3)ccc21` [Compound 110e, 2-(2-((5-(1-aminoisoquinolin-7-yl)-1-(pentan-3-yl)-1H-indazol-3-yl)methoxy)phenyl)acetic acid], with < 1000 nM.
As for `COCCn1nc(COc2ccccc2CC(=O)O)c2cc(-c3ccc4ccnc(N)c4c3)ccc21` [Compound 111e, 2-(2-((5-(1-aminoisoquinolin-7-yl)-1-(2-methoxyethyl)-1H-indazol-3-yl)methoxy)phenyl)acetic acid], the IC50 was < 1000 nM.
Regarding `Nc1nccc2ccc(-c3ccc4c(c3)c(COc3ccccc3CC(=O)O)nn4C3CC4(CCC4)C3)cc12` [Compound 112e, 2-(2-((5-(1-aminoisoquinolin-7-yl)-1-(spiro[3.3]heptan-2-yl)-1H-indazol-3-yl)methoxy)phenyl)acetic acid], the IC50 is < 1000 nM.
For `Nc1nccc2ccc(-c3ccc4nn([C@H]5CCN(CCO)C5)c(COc5ccccc5CC(=O)O)c4c3)cc12` [Compound 113h, (S)-2-(2-((5-(1-aminoisoquinolin-7-yl)-2-(1-(2-hydroxyethyl)pyrrolidin-3-yl)-2H-indazol-3-yl)methoxy)phenyl)acetic acid], the IC50 fell in the range of 1000 to 10000 nM.
Take `Nc1nccc2c(-c3ccc4nn([C@H]5CCN(CC(=O)O)C5)c(COc5ccccc5CC(=O)O)c4c3)cccc12` [Compound 114d, (S)-2-(2-((5-(1-aminoisoquinolin-5-yl)-2-(1-(carboxymethyl)pyrrolidin-3-yl)-2H-indazol-3-yl)methoxy)phenyl)acetic acid]: the half-maximal inhibitory concentration (IC50) was < 1000 nM.
In the case of `Nc1nccc2c(-c3ccc4nn([C@H]5CCN(CCO)C5)c(COc5ccccc5CC(=O)O)c4c3)cccc12` [Compound 115b, (S)-2-(2-((5-(1-aminoisoquinolin-5-yl)-2-(1-(2-hydroxyethyl)pyrrolidin-3-yl)-2H-indazol-3-yl)methoxy)phenyl)acetic acid], the IC50 fell in the range of 1000 to 10000 nM.
In the case of `Nc1nccc2ccc(-c3ccc4nn([C@H]5CCN(CC(=O)O)C5)c(COc5ccccc5CC(=O)O)c4c3)cc12` [Compound 116b, (S)-2-(2-((5-(1-aminoisoquinolin-7-yl)-2-(1-(carboxymethyl)pyrrolidin-3-yl)-2H-indazol-3-yl)methoxy)phenyl)acetic acid] it was 1000 to 10000 nM; in that of `COCCN1CC[C@H](n2nc3ccc(-c4cccc5c(N)nccc45)cc3c2COc2ccccc2CC(=O)O)C1` [Compound 117c, (S)-2-(2-((5-(1-aminoisoquinolin-5-yl)-2-(1-(2-methoxyethyl)pyrrolidin-3-yl)-2H-indazol-3-yl)methoxy)phenyl)acetic acid], 1000 to 10000 nM.
For the compound `COCCN1CC[C@H](n2nc3ccc(-c4ccc5ccnc(N)c5c4)cc3c2COc2ccccc2CC(=O)O)C1` [Compound 118b, (S)-2-(2-((5-(1-aminoisoquinolin-7-yl)-2-(1-(2-methoxyethyl)pyrrolidin-3-yl)-2H-indazol-3-yl)methoxy)phenyl)acetic acid], the IC50 is 1000 to 10000 nM.
Consider `Nc1nccc2ccc(-c3ccc4nn(C5CN(CCO)C5)c(COc5ccccc5CC(=O)O)c4c3)cc12` [Compound 119h, 2-(2-((5-(1-aminoisoquinolin-7-yl)-2-(1-(2-hydroxyethyl)azetidin-3-yl)-2H-indazol-3-yl)methoxy)phenyl)acetic acid], for which the IC50 was 1000 to 10000 nM.
Take `COCCN1CC(n2nc3ccc(-c4cccc5c(N)nccc45)cc3c2COc2ccccc2CC(=O)O)C1` [Compound 120c, 2-(2-((5-(1-aminoisoquinolin-5-yl)-2-(1-(2-methoxyethyl)azetidin-3-yl)-2H-indazol-3-yl)methoxy)phenyl)acetic acid]: the IC50 is < 1000 nM.
In the case of `CC(C)CCN1CC(n2nc3ccc(-c4cccc5c(N)nccc45)cc3c2COc2ccccc2CC(=O)O)C1` [Compound 121c, 2-(2-((5-(1-aminoisoquinolin-5-yl)-2-(1-isopentylazetidin-3-yl)-2H-indazol-3-yl)methoxy)phenyl)acetic acid], the IC50 was < 1000 nM.
For `COCCN1CC(n2nc3ccc(-c4ccc5ccnc(N)c5c4)cc3c2COc2ccccc2CC(=O)O)C1` [Compound 122b, 2-(2-((5-(1-aminoisoquinolin-7-yl)-2-(1-(2-methoxyethyl)azetidin-3-yl)-2H-indazol-3-yl)methoxy)phenyl)acetic acid], the IC50 was in the range of 1000 to 10000 nM.
Take `Nc1nccc2c(-c3ccc4nn(C5CN(CCO)C5)c(COc5ccccc5CC(=O)O)c4c3)cccc12` [Compound 123b, 2-(2-((5-(1-aminoisoquinolin-5-yl)-2-(1-(2-hydroxyethyl)azetidin-3-yl)-2H-indazol-3-yl)methoxy)phenyl)acetic acid]: the IC50 lay in the range of 1000 to 10000 nM.
Regarding `CC(C)CCN1CC(n2nc3ccc(-c4ccc5ccnc(N)c5c4)cc3c2COc2ccccc2CC(=O)O)C1` [Compound 124b, 2-(2-((5-(1-aminoisoquinolin-7-yl)-2-(1-isopentylazetidin-3-yl)-2H-indazol-3-yl)methoxy)phenyl)acetic acid], the IC50 lay in the range of 1000 to 10000 nM.
`CC(C)(C)OC(=O)N1CC(n2nc3ccc(-c4cccc5c(N)nccc45)cc3c2COc2ccccc2CC(=O)O)C1` [Compound 125b, 2-(2-((5-(1-aminoisoquinolin-5-yl)-2-(1-(tert-butoxycarbonyl)azetidin-3-yl)-2H-indazol-3-yl)methoxy)phenyl)acetic acid]: the IC50 was < 1000 nM.
In the case of `CCOC(=O)N1CC(n2nc3ccc(-c4cccc5c(N)nccc45)cc3c2COc2ccccc2CC(=O)O)C1` [Compound 126c, 2-(2-((5-(1-aminoisoquinolin-5-yl)-2-(1-(ethoxycarbonyl)azetidin-3-yl)-2H-indazol-3-yl)methoxy)phenyl)acetic acid], the IC50 lay within 1000 to 10000 nM.
For `CCOC(=O)N1CC(n2nc3ccc(-c4ccc5ccnc(N)c5c4)cc3c2COc2ccccc2CC(=O)O)C1` [Compound 127b, 2-(2-((5-(1-aminoisoquinolin-7-yl)-2-(1-(ethoxycarbonyl)azetidin-3-yl)-2H-indazol-3-yl)methoxy)phenyl)acetic acid], the IC50 was in the range of 1000 to 10000 nM.
With `CCC(=O)N1CC(n2nc3ccc(-c4ccc5ccnc(N)c5c4)cc3c2COc2ccccc2CC(=O)O)C1` [Compound 128c, 2-(2-((5-(1-aminoisoquinolin-7-yl)-2-(1-propionylazetidin-3-yl)-2H-indazol-3-yl)methoxy)phenyl)acetic acid], the IC50 lay within 1000 to 10000 nM.
With `CCC(=O)N1CC(n2nc3ccc(-c4cccc5c(N)nccc45)cc3c2COc2ccccc2CC(=O)O)C1` [Compound 129b, 2-(2-((5-(1-aminoisoquinolin-5-yl)-2-(1-propionylazetidin-3-yl)-2H-indazol-3-yl)methoxy)phenyl)acetic acid], the IC50 lay within 1000 to 10000 nM.
On to `CCS(=O)(=O)N1CC(n2nc3ccc(-c4cccc5c(N)nccc45)cc3c2COc2ccccc2CC(=O)O)C1` [Compound 130c, 2-(2-((5-(1-aminoisoquinolin-5-yl)-2-(1-(ethylsulfonyl)azetidin-3-yl)-2H-indazol-3-yl)methoxy)phenyl)acetic acid], for which the concentration for half-maximal inhibition (IC50) was < 1000 nM.
For the compound `CC(C)CCN1CCC(n2nc3ccc(-c4ccc5ccnc(N)c5c4)cc3c2COc2ccccc2CC(=O)O)CC1` [Compound 131h, 2-(2-((5-(1-aminoisoquinolin-7-yl)-2-(1-isopentylpiperidin-4-yl)-2H-indazol-3-yl)methoxy)phenyl)acetic acid], the IC50 is < 1000 nM.
Consider `CC(C)CCN1CCC(n2nc3ccc(-c4cccc5c(N)nccc45)cc3c2COc2ccccc2CC(=O)O)CC1` [Compound 132b, 2-(2-((5-(1-aminoisoquinolin-5-yl)-2-(1-isopentylpiperidin-4-yl)-2H-indazol-3-yl)methoxy)phenyl)acetic acid], for which the IC50 is < 1000 nM.
In the case of `CCS(=O)(=O)N1CC(n2nc3ccc(-c4ccc5ccnc(N)c5c4)cc3c2COc2ccccc2CC(=O)O)C1` [Compound 133b, 2-(2-((5-(1-aminoisoquinolin-7-yl)-2-(1-(ethylsulfonyl)azetidin-3-yl)-2H-indazol-3-yl)methoxy)phenyl)acetic acid], the IC50 was > 10000 nM.
Take `COCCN1CCC(n2nc3ccc(-c4cccc5c(N)nccc45)cc3c2COc2ccccc2CC(=O)O)CC1` [Compound 134c, 2-(2-((5-(1-aminoisoquinolin-5-yl)-2-(1-(2-methoxyethyl)piperidin-4-yl)-2H-indazol-3-yl)methoxy)phenyl)acetic acid]: the IC50 is < 1000 nM.
For the compound `CC(C)(C)OC(=O)NC1CC(n2nc3ccc(-c4cccc5c(N)nccc45)cc3c2COc2ccccc2CC(=O)O)C1` (stereo not shown) [Compound 135f, 2-(2-((5-(1-aminoisoquinolin-5-yl)-2-(3-(tert-butoxycarbonylamino)cyclobutyl)-2H-indazol-3-yl)methoxy)phenyl)acetic acid], the IC50 was < 1000 nM.

As a reminder, the IC50 is the point on the concentration scale where inhibition reaches its midpoint.
